Laboratory results from patent publication US8853141B2, “Sulfomethylsuccinates, process for making same and compositions containing same” (Stepan Company, priority 2009, dated 2014).

Experiment: Surface activity, K12 Krüss tensiometer, automatic titration for CMC
Assay type: physicochemical
Experimental: Surface activity was measured with a K12 Krüss tensiometer at 25° C. in deionized water. Automatic titration was used to determine the critical micelle concentration (CMC). No pH adjustment was made for the measurement.

Substance: dodecyl sulfosuccinate
- critical micelle concentration (CMC): about 120 mg/L
